According to patent publication US20050239751A1, “Heterocyclic anti-viral compounds comprising metabolizable moieties and their uses” (Rigel Pharmaceuticals, Inc., priority 2004, published 2005):
Where two headings read alike, the source gives them in different places.

Assays:
[1] = system: HCV replicon in 5-2 Luc replicon-comprising cells; assay: HCV replicon assay (luciferase; HEPC_REPLICON-LUC); type: cell-based, Hepatitis C virus; settings: Hepatitis C virus
From the text: In one embodiment, the inhibitory activity of the metabolically active agent of the prodrug can be confirmed in a replicon assay that assesses the ability of a test compound to block or inhibit HCV replication in replicon cells. One example of a suitable replicon assay is the liver cell-line Huh 7-based replicon assay described in Lohmann et al., 1999, Science 285:110-113. A specific example of this replicon assay which utilizes luciferase translation is provided in the Examples Section. In one embodiment of this assay, the amount of test prodrug that yields a 50% reduction in translation as compared to a control cell (IC50) may be determined.
The inhibitory activity of certain prodrugs of the invention, which may inhibit HCV translation or replication prior to metablism and/or are metabolized into active agents, was confirmed using an HCV replicon assay. The HCV replicon can include such features as the HCV 5′ untranslated region including the HCV IRES, the HCV 3′ untranslated region, selected HCV genes encoding HCV polypeptides, selectable markers, and a reporter gene such as luciferase, GFP, etc. In the assay, actively dividing 5-2 Luc replicon-comprising cells (obtained from Ralf Bartenschlager; see Lohmann et al., 1999, Science 285:110-113) were seeded at a density of between about 5,000 and 7,500 cells/well onto 96 well plates (about 90 µl of cells per well) and incubated at 37° C. and 5% CO2 for 24 hours. Then, the test prodrug (in a volume of about 10 PI) was added to the wells at various concentrations and the cells were incubated for an additional 24-48 hours before luciferase assay. The media was aspirated from each well and Bright-Glo (Promega, Madison, WI) luciferase assay reagents were added to each well according to the manufacturer's instructions. Briefly, the BrightGlo reagent was diluted 1:1 with PBS and 100 µl of diluted reagent was added to each well. After 5 min of incubation at room temperature, luciferin emission was quantified with a luminometer. In this assay, the amount of test prodrug that yielded a 50% reduction in luciferase emission (IC50) was determined. This IC50 value may represent the antiviral activity of the prodrug itself, the activity of prodrug transformed into its active metabolized form, or a combination of the two.
In TABLES 3 through 12, a value of “+” indicates an IC50 of 10 μM or less in the specified assay; a value of “−” indicates an IC50 of greater than 10 μM in the specified assay.

[2] = system: HCV NS5A protein in 9-13 replicon cells; assay: Replicon quantitative Western blot assay (HEPC_REPLICON-ICWESTERN); type: cell-based; settings: Hepatitis C virus; Table 14; read-out: HEPC_REPLICON-ICWESTERN Result Value
Method: Alternatively, the inhibitory activity of the metabolically active agents of the prodrugs can be confirmed using a quantitative Western immunoblot assay utilizing antibodies specific for HCV non-structural proteins, such as NS3, NS4A NS5A and NS5B. In one embodiment of this assay, replicon cells are treated with varying concentrations of test prodrug to determine the concentration of the metabolically active agent of the test prodrug that yields a 50% reduction in the amount of a non-structural protein produced as compared to a control sample (IC50). A single non-structural protein may be quantified or multiple non-structural proteins may be quantified. Antibodies suitable for carrying out such immunoblot assays are available commercially (e.g., from BIODESIGN International, Saco, Me.).
Certain prodrugs of the invention, which may inhibit HCV translation or replication prior to metablism and/or are metabolized into active agents, were also tested for their ability to inhibit HCV replication using a quantitative Western blot analysis with antibodies specific for the HCV NS5A or other non-structural proteins. Actively dividing 9-13 replicon cells were seeded into 6-well plates at a density of 1×10^5 cells/well in a volume of 2 ml/well and incubated at 37° C. and 5% CO2 for 24 hours. Various concentrations of test prodrugs (in a volume of 10 ul) were added to the wells and the cells incubated for another 48 hours. Protein samples were prepared from the cultured cells, resolved on a SDS-PAGE gel and transferred to a nitrocellulose membrane. The membrane was blocked with 5% non-fat milk in PBS for 1 hour at room temperature. Primary antibody (anti NS5A antibody; BIODESIGN International, Saco, Me.) incubation was performed for 1 hour at room temperature, after which the membrane was washed 3 times (for 15 min per time) with PBST (PBS plus 0.1% Tween 20). Horseradish peroxidase conjugated secondary antibody incubation was performed for 1 hour at room temperature and the membrane was washed 3 times (for 15 min per time) with PBST. The membrane was then soaked in substrate solution (Pierce) and exposed to a film or quantified using an imager. In this assay, the amount of test prodrug that is believed to be transformed into an active agent under the given conditions that yielded a 50% reduction in the amount of NS5A protein translated as compared to a control sample (IC50) was determined.

[3] = Biliary excretion in rats after oral administration; type: in vivo; settings: rat, four hours after oral administration
Method: Evidence for the conversion of prodrug 1107 to its active metabolite in rat liver was obtained by measuring prodrug and active compound concentrations in bile fluid.
(§1) Compounds were dissolved in a mixture of TPGS:PEG:PG (35%:60%:5%) and diluted with saline for oral administration. Typically, 6.5mg of compound was dissolved in 1 ml of the organic mixture and added to 5.5 ml of saline. Animals were dosed with 5 ml/kg of this mixture to give a typical dose of 5 mg/kg. All animal studies were conducted in male SpraqueDawley rats and the animals were fasted overnight prior to dose administration. Surgeries (to implant blood sampling cannula) were conducted at least two days prior to the study. Blood samples (100 μl) were collected using sodium heparin as anticoagulant and added to 300 μl of a mixture of acetate buffer (100 mM, pH=6.5):acetonitrile:ethanol:DMSO (2:1:1:2 v/v). Samples were centrifuged and the supernatant was analyzed by LC/MS/MS using the procedures outlined above. Standard were prepared similarly using fresh rat blood from naive animals.
Esterases are present in various tissues in the liver and may further degrade the active parent compound prior to reaching the HepC virus that is localized within hepatocyte cells. Experiments with radio-labeled the active parent compound indicate that the active parent compound is excreted from the body through bile (data not shown). […]

[4] = Rat pharmacokinetic study, portal and jugular vein cannula, oral administration; type: in vivo
Method: Pharamcokinetic studies were conducted in rats containing surgically implanted cannula in the portal and jugular veins. Blood samples were taken simultaneously from both cannula at various times after oral administration of the compounds. In the portal vein, the prodrugs are detected and, in some cases, the active compound, A-B-C-NHCOCHX2, has also been detected. The presence of active compound in the portal vein samples has been attributed to metabolism of the prodrug in transit through the gut wall. […] In the jugular samples, many, but not all, of the prodrugs have been detected in systemic circulation, depending on the hepatic extraction ratio of the prodrug.
as §1, with “Blood samples (100 μl) were collected using sodium heparin as anticoagulant and added to 300 μl of a mixture of acetate buffer (100 mM, pH=6.5):acetonitrile:ethanol:DMSO (2:1:1:2 v/v).” left out, “Standard were prepared similarly using fresh rat blood from naive animals.” left out

[5] = Table 14, read-out: HEPC_REPLICON-LUC Result Value

SMILES | IC50 [1, 5] [nM] | IC50 [2] [nM] | further results
CC(C)(C)OP(=O)(Cc1ccc(CCCN(C(=O)C(Cl)Cl)c2ccnc(-c3cc(-c4c(Cl)cccc4Cl)no3)c2)cc1)OC(C)(C)C [Cpd. 1041, Di-tert-Butyl 4-(3-(2,2-Dichloro-N-(2-(3-(2,6-dichlorophenyl)isoxazol-5-yl)pyridin-4-yl)acetamido)propyl)benzylphosphonate] | 1000 to 20000 | 1000 to 20000 | 
CC(C)(C)c1oc(=O)oc1CN(C(=O)C(Cl)Cl)c1ccnc(-c2cc(-c3c(Cl)cccc3Cl)no2)c1 [Cpd. 1107, 2,2-dichloro-N-[2′-[3′-(2′,6′-dichlorophenyl)-5′-isoxazoyl](4-pyridyl)]-N-[(5-t-butyl-1,3-dioxolene-2-one4-yl)methylene] acetamide] |  |  | IC50 ([1]; Tables 3-12, 50% reduction in luciferase emission, 5-2 Luc replicon cells, read-out: Replicon (IC50)): ≤ 10000 nM; Prodrug and resultant active compound levels in bile fluid [3]: High levels; Cmax ([4]; Sprague-Dawley, rat, whole blood, typical dose of 5 mg/kg, male rats, read-out: Rat PK Cmax, Prodrug): 510 ng/mL; Rat PK Hepatic extraction ratio of Prodrug ([4]; portal and jugular vein sampling): 0.97
O=C(c1cccc(-c2cc(-c3c(Cl)cccc3Cl)no2)c1)N(Cc1oc(=O)oc1COC1CC(O)C(O)C(CO)O1)C(=O)C(Cl)Cl (stereo not shown) [Cpd. 1044] | < 1000 | < 1000 | 
O=C(C(Cl)Cl)N(CCCc1ccc(N2CCNCC2)cc1)c1ccnc(-c2cc(-c3c(Cl)cccc3Cl)no2)c1 [Cpd. 1043, 2,2-Dichloro-N-(2-(3-(2,6-dichlorophenyl)isoxazol-5-yl)pyridin-4-yl)-N-(3-(4-(piperazin-1-yl)phenyl)propyl)acetamide] | 1000 to 20000 | 1000 to 20000 | 
O=C(CCN(C(=O)C(Cl)Cl)c1ccnc(-c2cc(-c3c(Cl)cccc3Cl)no2)c1)C1CCCN1 (stereo not shown) [Cpd. 1024, 2,2-Dichloro-N-(2-(3-(2,6-dichlorophenyl)isoxazol-5-yl)pyridin-4-yl)-N-(3-oxo-3-(pyrrolidin-2-yl)propyl)acetamide] |  | < 1000 | 
CC(C)(C)OC(=O)c1ccc(CCCN(C(=O)C(Cl)Cl)c2ccnc(-c3cc(-c4c(Cl)cccc4Cl)no3)c2)cc1 [Cpd. 1040, tert-Butyl 4-(3-(2,2-Dichloro-N-(2-(3-(2,6-dichlorophenyl)isoxazol-5-yl)pyridin-4-yl)acetamido)propyl)benzoate] |  | 1000 to 20000 | 
O=C(C(Cl)Cl)N(COCCc1ccccn1)c1ccnc(-c2cc(-c3c(Cl)cccc3Cl)no2)c1 [Cpd. 1028, 2,2-Dichloro-N-(2-(3-(2,6-dichlorophenyl)isoxazol-5-yl)pyridin-4-yl)-N-((2-(pyridin-2-yl)ethoxy)methyl)acetamide] |  | > 20000 | 
